Our source for the IC50 values is patent US20240199649A1 (Biosplice Therapeutics, Inc., priority 2022, published 2024).

pIC50: −log10 of the molar value.

This assay has as its target recombinant DYRK1A kinase (Homo sapiens (Human), UniProt Q13627). Briefly: DYRK1A kinase assay (Ser/Thr 18 peptide Z-lyte FRET assay). It is filed as biochemical. The note with it: DYRK1A 0.25 μg/mL, ATP 15 μM, Ser/Thr peptide 18 4 μM; one hour at room temperature; 11-point dose-response, duplicate. In short, it runs like this:
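Z-lyte FRET assay on Ser/Thr 18 peptide, kinase activity read as coumarin/fluorescein emission ratio; compounds incubated 1 h at room temperature, then development reagent 1 h, in duplicate. Phosphorylated and unphosphorylated peptide served as controls; IC50 by non-linear regression of dose-response curves.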
By pIC50 is commonly meant the negative decadic logarithm of the IC50, by convention in mol/L. Consider `CNc1nc(N[C@@H]2CCN(C)CC2(F)F)nn2ccc(-c3ccc4ncn(CC(F)(F)F)c4n3)c12` [Compound 1017, (R)—N^2-(3,3-Difluoro-1-methylpiperidin-4-yl)-N^4-methyl-5-(3-(2,2,2-trifluoroethyl)-3H-imidazo[4,5-b]pyridin-5-yl)pyrrolo[2,1-f][1,2,4]triazine-2,4-diamine], for which the negative logarithm of the IC50 (pIC50) was 8.77.
As for `CNc1nc(N[C@@H]2CCN(C(C)=O)CC2(F)F)nn2ccc(-c3ccc4ncn(CC(F)(F)F)c4n3)c12` [Compound 1018, (R)-1-(3,3-Difluoro-4-((4-(methylamino)-5-(3-(2,2,2-trifluoroethyl)-3H-imidazo[4,5-b]pyridin-5-yl)pyrrolo[2,1-f][1,2,4]triazin-2-yl)amino)piperidin-1-yl)ethan-1-one], the pIC50 is 8.80.
The value for `CNc1nc(N[C@@H]2CCN(C3COC3)CC2(F)F)nn2ccc(-c3ccc4ncn(CC(F)(F)F)c4n3)c12` [Compound 1019, (R)—N^2-(3,3-Difluoro-1-(oxetan-3-yl)piperidin-4-yl)-N^4-methyl-5-(3-(2,2,2-trifluoroethyl)-3H-imidazo[4,5-b]pyridin-5-yl)pyrrolo[2,1-f][1,2,4]triazine-2,4-diamine] was 8.77; that for `CNc1nc(N[C@H]2CCN(C(C)=O)C[C@H]2F)nn2ccc(-c3ccc4nc(C)n(CCF)c4n3)c12` [Compound 1020, 1-((3R,4S)-3-Fluoro-4-((5-(3-(2-fluoroethyl)-2-methyl-3H-imidazo[4,5-b]pyridin-5-yl)-4-(methylamino)pyrrolo[2,1-f][1,2,4]triazin-2-yl)amino)piperidin-1-yl)ethan-1-one] was 8.68.
The value for `CNc1nc(N[C@@H]2CCN(C(C)=O)CC2(F)F)nn2ccc(-c3ccc4nc(C)n(CCF)c4n3)c12` [Compound 1021, (R)-1-(3,3-Difluoro-4-((5-(3-(2-fluoroethyl)-2-methyl-3H-imidazo[4,5-b]pyridin-5-yl)-4-(methylamino)pyrrolo[2,1-f][1,2,4]triazin-2-yl)amino)piperidin-1-yl)ethan-1-one] was 8.89; that for `CNc1nc(N[C@H]2CCN(C(C)=O)C[C@H]2F)nn2ccc(-c3ccc4nc(C)n(CC(F)F)c4n3)c12` [Compound 1022, 1-((3R,4S)-4-((5-(3-(2,2-Difluoroethyl)-2-methyl-3H-imidazo[4,5-b]pyridin-5-yl)-4-(methylamino)pyrrolo[2,1-f][1,2,4]triazin-2-yl)amino)-3-fluoropiperidin-1-yl)ethan-1-one] was 9.40.
Take `CNc1nc(N[C@@H]2CCN(C(C)=O)CC2(F)F)nn2ccc(-c3ccc4nc(C)n(CC(F)F)c4n3)c12` [Compound 1023, (R)-1-(4-((5-(3-(2,2-Difluoroethyl)-2-methyl-3H-imidazo[4,5-b]pyridin-5-yl)-4-(methylamino)pyrrolo[2,1-f][1,2,4]triazin-2-yl)amino)-3,3-difluoropiperidin-1-yl)ethan-1-one]: the pIC50 is 8.33.
The value for `CNc1nc(N[C@@H]2CCN(C(C)=O)CC2(F)F)nn2ccc(-c3ccc4nc(C)n(CC(F)(F)F)c4n3)c12` [Compound 1024, (R)-1-(3,3-Difluoro-4-((5-(2-methyl-3-(2,2,2-trifluoroethyl)-3H-imidazo[4,5-b]pyridin-5-yl)-4-(methylamino)pyrrolo[2,1-f][1,2,4]triazin-2-yl)amino)piperidin-1-yl)ethan-1-one] was 9.00; that for `CNc1nc(NC2CCC(F)(F)CC2)nn2ccc(-c3ccc4nnn(CC(F)F)c4n3)c12` [Compound 1025, N^2-(4,4-Difluorocyclohexyl)-5-(3-(2,2-difluoroethyl)-3H-[1,2,3]triazolo[4,5-b]pyridin-5-yl)-N^4-methylpyrrolo[2,1-f][1,2,4]triazine-2,4-diamine] was 8.00.
The value for `CNc1nc(N[C@@H]2CN(C(C)=O)C[C@@H]2F)nn2ccc(-c3ccc4nnn(CC(F)F)c4n3)c12` [Compound 1026, 1-((3R,4S)-3-((5-(3-(2,2-Difluoroethyl)-3H-[1,2,3]triazolo[4,5-b]pyridin-5-yl)-4-(methylamino)pyrrolo[2,1-f][1,2,4]triazin-2-yl)amino)-4-fluoropyrrolidin-1-yl)ethan-1-one] was 9.52; that for `CNc1nc(N[C@@H]2CN(C)CC2(F)F)nn2ccc(-c3ccc4nnn(CC(F)F)c4n3)c12` [Compound 1027, (R)—N^2-(4,4-Difluoro-1-methylpyrrolidin-3-yl)-5-(3-(2,2-difluoroethyl)-3H-[1,2,3]triazolo[4,5-b]pyridin-5-yl)-N^4-methylpyrrolo[2,1-f][1,2,4]triazine-2,4-diamine] was 9.22.
The value for `CNc1nc(N[C@@H]2CN(C3COC3)CC2(F)F)nn2ccc(-c3ccc4nnn(CC(F)F)c4n3)c12` [Compound 1028, (R)—N^2-(4,4-Difluoro-1-(oxetan-3-yl)pyrrolidin-3-yl)-5-(3-(2,2-difluoroethyl)-3H-[1,2,3]triazolo[4,5-b]pyridin-5-yl)-N^4-methylpyrrolo[2,1-f][1,2,4]triazine-2,4-diamine] was 8.89; that for `CNc1nc(N[C@@H]2CCN(C(C)=O)CC2(F)F)nn2ccc(-c3ccc4nnn(CC(F)F)c4n3)c12` [Compound 1029, (R)-1-(4-((5-(3-(2,2-Difluoroethyl)-3H-[1,2,3]triazolo[4,5-b]pyridin-5-yl)-4-(methylamino)pyrrolo[2,1-f][1,2,4]triazin-2-yl)amino)-3,3-difluoropiperidin-1-yl)ethan-1-one] was 8.89; that for `CNc1nc(N[C@H]2CC[C@](C)(O)CC2)nn2ccc(-c3ccc4nnn(CC(F)(F)F)c4n3)c12` [Compound 1031, (1r,4r)-1-Methyl-4-((4-(methylamino)-5-(3-(2,2,2-trifluoroethyl)-3H-[1,2,3]triazolo[4,5-b]pyridin-5-yl)pyrrolo[2,1-f][1,2,4]triazin-2-yl)amino)cyclohexan-1-ol] was 8.40.
For `CNc1nc(N[C@H]2CCN(C(C)=O)C[C@H]2F)nn2ccc(-c3ccc4nnn(CC(F)(F)F)c4n3)c12` [Compound 1032, 1-((3R,4S)-3-Fluoro-4-((4-(methylamino)-5-(3-(2,2,2-trifluoroethyl)-3H-[1,2,3]triazolo[4,5-b]pyridin-5-yl)pyrrolo[2,1-f][1,2,4]triazin-2-yl)amino)piperidin-1-yl)ethan-1-one], the negative-log IC50 (pIC50) is 8.55.
The value for `CNc1nc(N[C@H]2CCN(C3COC3)C[C@H]2F)nn2ccc(-c3ccc4nnn(CC(F)(F)F)c4n3)c12` [Compound 1033, N^2-((3R,4S)-3-Fluoro-1-(oxetan-3-yl)piperidin-4-yl)-N^4-methyl-5-(3-(2,2,2-trifluoroethyl)-3H-[1,2,3]triazolo[4,5-b]pyridin-5-yl)pyrrolo[2,1-f][1,2,4]triazine-2,4-diamine] was 8.70; that for `CNc1nc(N[C@@H]2CCN(C)CC2(F)F)nn2ccc(-c3ccc4nnn(CC(F)(F)F)c4n3)c12` [Compound 1034, (R)—N^2-(3,3-Difluoro-1-methylpiperidin-4-yl)-N^4-methyl-5-(3-(2,2,2-trifluoroethyl)-3H-[1,2,3]triazolo[4,5-b]pyridin-5-yl)pyrrolo[2,1-f][1,2,4]triazine-2,4-diamine] was 8.72; that for `CNc1nc(N[C@@H]2CCN(C3COC3)CC2(F)F)nn2ccc(-c3ccc4nnn(CC(F)(F)F)c4n3)c12` [Compound 1036, (R)—N^2-(3,3-Difluoro-1-(oxetan-3-yl)piperidin-4-yl)-N^4-methyl-5-(3-(2,2,2-trifluoroethyl)-3H-[1,2,3]triazolo[4,5-b]pyridin-5-yl)pyrrolo[2,1-f][1,2,4]triazine-2,4-diamine] was 9.00.
The value for “N^2-(4,4-Difluorocyclohexyl)-N^4-methyl-5-(3-(2,2,2-trifluoroethyl)-3H-[1,2,3]triazolo[4,5-b]pyridin-5-yl)pyrrolo[2,1-f][1,2,4]triazine-2,4-diamine [Compound 1030]” was 6.71.
The value for “N^4-Methyl-N^2-(1-(oxetan-3-yl)piperidin-4-yl)-5-(pyrazolo[1,5-a]pyridin-5-yl)pyrrolo[2,1-f][1,2,4]triazine-2,4-diamine [Compound 2]” was 6.57.
